Source: ChEMBL document CHEMBL3044881, “Synthesis and biological evaluation of novel series of chalcone derivatives as inhibitors of cyclooxygenase and LPS-induced TNF- with potent antioxidant properties” (Med Chem Res, 2012)

Experiments:
[1] = Antioxidant activity assessed as hydroxyl radical scavenging activity at 10 uM by spectrophotometric analysis; type: functional
[2] = test system: Radical scavenging activity; assay: Antioxidant activity assessed as DPPH free radical scavenging activity at 10 uM by spectrophotometric analysis; type: functional
Blood [3] = assay: Anti-inflammatory activity in Homo sapiens (human) whole blood assessed inhibition of LPS-induced TNF-alpha production at 10 uM treated 30 min before LPS challenge measured after 5 hr; type: functional
[4] = Antioxidant activity assessed as reduction of K3Fe(CN)6 to Fe2+ at 10 uM after 10 min; type: functional; design: scale not given: the % may be the effect or the level left
Blood [5] = assay: Anti-inflammatory activity in Homo sapiens (human) whole blood assessed inhibition of LPS-induced TNF-alpha production at 1 uM treated 30 min before LPS challenge measured after 5 hr; type: functional
Blood [6] = assay: Anti-inflammatory activity in Homo sapiens (human) whole blood assessed inhibition of LPS-induced TNF-alpha production treated 30 min before LPS challenge measured after 5 hr; type: functional, tissue-based
[7] = target: T1, Prostaglandin G/H synthase 2 (Ovis aries) (UniProt P79208); assay: Inhibition of Ovis aries (sheep) COX2 at 1 mM after 5 min by colorimetric analysis
T1 sequence (whole entry): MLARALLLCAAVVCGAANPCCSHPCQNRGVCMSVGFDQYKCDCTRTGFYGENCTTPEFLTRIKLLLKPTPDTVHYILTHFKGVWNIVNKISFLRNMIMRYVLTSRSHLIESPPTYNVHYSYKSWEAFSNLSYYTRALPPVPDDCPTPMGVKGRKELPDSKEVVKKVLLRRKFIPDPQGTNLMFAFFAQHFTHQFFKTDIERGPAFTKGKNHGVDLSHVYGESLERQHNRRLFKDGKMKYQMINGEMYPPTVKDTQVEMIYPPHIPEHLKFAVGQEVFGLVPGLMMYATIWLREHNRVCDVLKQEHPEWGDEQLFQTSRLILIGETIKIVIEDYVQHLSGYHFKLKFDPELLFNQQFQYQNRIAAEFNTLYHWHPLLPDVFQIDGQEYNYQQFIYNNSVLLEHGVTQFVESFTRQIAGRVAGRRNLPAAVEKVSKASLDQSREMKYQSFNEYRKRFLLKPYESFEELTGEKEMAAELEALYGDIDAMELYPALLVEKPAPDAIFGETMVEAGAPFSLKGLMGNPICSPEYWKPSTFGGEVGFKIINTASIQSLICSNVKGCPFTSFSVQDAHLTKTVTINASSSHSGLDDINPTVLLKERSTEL

[8] = target: T2, Beta-glucuronidase (Homo sapiens) (UniProt P08236); assay: Inhibition of beta-glucuronidase (unknown origin) using p-nitrophenyl-beta-D-glucopyranosiduronic acid as substrate at 1 mM after 30 min
T2 sequence (whole entry): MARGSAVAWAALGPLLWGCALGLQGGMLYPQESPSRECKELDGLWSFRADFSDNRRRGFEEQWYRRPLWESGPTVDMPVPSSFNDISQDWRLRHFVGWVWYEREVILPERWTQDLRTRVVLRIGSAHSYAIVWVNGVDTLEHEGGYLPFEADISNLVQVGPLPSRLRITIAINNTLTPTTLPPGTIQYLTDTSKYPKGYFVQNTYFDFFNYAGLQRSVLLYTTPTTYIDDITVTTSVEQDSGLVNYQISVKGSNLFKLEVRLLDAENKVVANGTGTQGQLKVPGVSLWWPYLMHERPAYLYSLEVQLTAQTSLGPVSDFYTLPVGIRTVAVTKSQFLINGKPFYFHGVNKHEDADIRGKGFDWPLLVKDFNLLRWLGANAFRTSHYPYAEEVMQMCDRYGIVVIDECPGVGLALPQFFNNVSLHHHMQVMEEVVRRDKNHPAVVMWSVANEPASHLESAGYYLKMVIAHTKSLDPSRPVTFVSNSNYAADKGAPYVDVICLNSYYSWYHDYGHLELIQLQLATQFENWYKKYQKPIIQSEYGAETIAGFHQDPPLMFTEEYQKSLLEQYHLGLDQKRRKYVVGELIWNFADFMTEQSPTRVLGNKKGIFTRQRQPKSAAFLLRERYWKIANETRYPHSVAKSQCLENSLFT

[9] = target: T3, Prostaglandin G/H synthase 1 (Ovis aries) (UniProt P05979); conditions: at 1 mM
T3 sequence (whole entry): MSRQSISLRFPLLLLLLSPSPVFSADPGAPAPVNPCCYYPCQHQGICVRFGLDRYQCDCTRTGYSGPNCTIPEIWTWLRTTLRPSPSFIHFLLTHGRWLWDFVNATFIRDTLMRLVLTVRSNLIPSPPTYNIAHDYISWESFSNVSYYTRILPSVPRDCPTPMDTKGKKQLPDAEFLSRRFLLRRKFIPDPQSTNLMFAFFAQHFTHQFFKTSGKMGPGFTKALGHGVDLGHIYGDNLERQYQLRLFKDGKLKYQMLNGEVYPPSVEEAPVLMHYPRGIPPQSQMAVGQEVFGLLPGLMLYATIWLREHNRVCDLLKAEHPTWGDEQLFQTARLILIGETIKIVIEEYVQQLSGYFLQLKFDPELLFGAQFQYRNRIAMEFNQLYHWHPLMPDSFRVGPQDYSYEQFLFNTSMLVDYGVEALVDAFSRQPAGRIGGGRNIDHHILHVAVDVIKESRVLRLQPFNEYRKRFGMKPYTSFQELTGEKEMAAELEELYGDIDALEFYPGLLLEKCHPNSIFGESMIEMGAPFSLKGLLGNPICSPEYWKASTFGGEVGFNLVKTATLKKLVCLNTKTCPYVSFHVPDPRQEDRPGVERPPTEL
Description: Inhibition of Ovis aries (sheep) COX1 at 1 mM after 5 min by colorimetric analysis

Trypsin (Homo sapiens) = Trypsin (Homo sapiens) (UniProt P07477+P07478+P35030); assay: Inhibition of trypsin (unknown origin) assessed as hydrolysis of bovine serum albumin at 1 mM after 20 min; type: protein assay
[10] = Homo sapiens, Blood, read-out: IC50

Row | SMILES | Activity [1] [%] | Activity [2] [%] | inhibition at 10 µM (Blood [3]) [%] | Activity [4] [%] | inhibition at 1 µM (Blood [5]) [%] | IC50 (Blood [6]; [10]) [µM] | inhibition [7] [%] | inhibition [8] [%] | IC50 (Blood [6]) | inhibition [9] [%] | inhibition (Trypsin (Homo sapiens)) [%]
1 | COc1ccc(OC)c(/C=C/C(=O)c2c(OC)cc(OC)c(Br)c2O)c1 | 31.6 | 23 | 57 | 22.9 | 22 | 10.9 |  |  |  |  | 
2 | COc1cc(OC)c(C(=O)/C=C/c2ccccc2Cl)c(O)c1Br | 32.3 | 15.8 | 72 | 14.3 | 40 | 15.9 |  |  |  |  | 
3 | C[C@H]1C[C@H]2[C@@H]3CCC4=CC(=O)C=C[C@]4(C)[C@@]3(F)[C@@H](O)C[C@]2(C)[C@@]1(O)C(=O)CO [BETAMETHASONE] |  |  | 87 |  | 72 | 1 |  |  |  |  | 
4 | COc1cc(OC)c(C(=O)/C=C/c2cccc(F)c2)c(O)c1Br |  | 12 | 63 | 12.2 | 36 | 1.2 |  |  |  |  | 
5 | COc1ccc(/C=C/C(=O)c2c(OC)cc(OC)c(Br)c2O)cc1 | 49.4 | 38.4 | 53 | 34.3 | 38 | 7.4 |  |  |  |  | 
6 | CC(=O)Oc1ccccc1C(=O)O |  |  |  |  |  |  | 38.5 |  |  |  | 
7 | COc1cc(OC)c(C(=O)/C=C/c2cccnc2)c(O)c1Br | 44.1 | 21.1 | 85 | 16.6 | 45 | 0.1 |  |  |  |  | 
8 | COc1cc(OC)c(C(=O)/C=C/c2cccc(Br)c2)c(O)c1Br | 38.2 | 24.1 | 57 | 19.6 | 13 | 8.2 |  |  |  |  | 
9 | O=C1O[C@H]([C@@H](O)CO)C(O)=C1O | 41.2 |  |  | 76.6 |  |  |  |  |  |  | 
10 | COc1cc(OC)c(C(=O)/C=C/c2ccc(Cl)cc2)c(O)c1Br | 38.2 | 18.4 | 51 | 15.7 | 43 | 1.4 |  |  |  |  | 
11 | COc1cc(OC)c(C(=O)/C=C/c2ccccc2C(F)(F)F)c(O)c1Br | 47 | 13.7 | 52 | 10 | 27 | 3.2 |  |  |  |  | 
12 | O=C(O)c1ccccc1O |  |  |  |  |  |  |  | 26.5 |  |  | 
13 | COc1cc(OC)c(C(=O)/C=C/c2ccccc2F)c(O)c1Br | 16.8 | 29.9 | 38 | 29.7 | 24 |  |  |  | Not Active |  | 
14 | COc1cc(OC)c(C(=O)/C=C/c2ccc(Cl)cc2Cl)c(O)c1Br | 30.2 | 17.3 | 53 | 17.4 | 46 | 8.9 |  |  |  |  | 
15 | COc1cc(/C=C/C(=O)c2c(OC)cc(OC)c(Br)c2O)cc(OC)c1 | 23.5 |  | 37 | 18.4 | 25 | 11.4 |  |  |  |  | 
16 | COc1ccc(/C=C/C(=O)c2c(OC)cc(OC)c(Br)c2O)c(OC)c1 | 28.8 | 20.2 | 59 | 18.4 | 21 | 10.2 | 57.8 | 41.3 |  | 52.4 | 39.5
17 | COc1cc(OC)c(C(=O)/C=C/c2cccc(C#N)c2)c(O)c1Br | 25.6 | 27.4 | 57 | 17.3 | 26 | 0.7 |  |  |  |  | 
18 | COc1cc(OC)c(C(=O)/C=C/c2cc[nH]c2)c(O)c1Br |  | 26.7 | 78 | 26 | 42 | 0.6 |  |  |  |  | 
19 | COc1cc(OC)c(C(=O)/C=C/c2ccc(Cl)c([N+](=O)[O-])c2)c(O)c1Br |  | 14.3 | 49 | 26 | 34 | 14.2 |  |  |  |  | 
20 | O=C(O)c1cc(O)c(O)c(O)c1 |  | 91 |  |  |  |  |  |  |  |  | 
21 | COc1cc(OC)c(C(=O)/C=C/c2cccc([N+](=O)[O-])c2)c(O)c1Br | 18.8 | 23.7 | 50 | 26.2 | 31 | 10.1 |  |  |  |  | 
